The assay addresses BACE-1 (Homo sapiens, UniProt P56817). Nature of the assay: Inhibition of BACE cleavage of a P5-P5′ fluorescent peptide substrate containing the Swedish mutation cleavage site. The format is biochemical. The settings on record: fluorogenic P5-P5′ BACE-1 substrate; 30 minutes preincubation at room temperature; signal read every 30 minutes at 25° C. for 2 hr. On the procedure:
The compounds were evaluated for inhibition of BACE cleavage of a P5-P5′ fluorescent peptide substrate containing the Swedish mutation cleavage site. In detail, 4 μL of assay buffer was added to each well, followed by 2 μL of BACE-1 diluted in assay buffer to 7.5 ng/uL. Then, 2 μL of compound, at concentrations along an 11 pt. two-fold dilution series starting at 10 uM, or 0.5 uM, were added to the appropriated wells and incubated for 30 minutes at room temperature. For all dilutions of inhibitor, the compound stock solutions of 10 mM in DMSO were diluted to 50 uM in water; subsequent dilutions were in 0.5% DMSO. Afterwards, 2 μL of fluorogenic P5-P5′ BACE-1 substrate, diluted to 50 μM in assay buffer, were added to each well, after which the signal generated was read every 30 minutes at 25° C. for 2 hr.

Chain of BACE-1 (P56817 46-501): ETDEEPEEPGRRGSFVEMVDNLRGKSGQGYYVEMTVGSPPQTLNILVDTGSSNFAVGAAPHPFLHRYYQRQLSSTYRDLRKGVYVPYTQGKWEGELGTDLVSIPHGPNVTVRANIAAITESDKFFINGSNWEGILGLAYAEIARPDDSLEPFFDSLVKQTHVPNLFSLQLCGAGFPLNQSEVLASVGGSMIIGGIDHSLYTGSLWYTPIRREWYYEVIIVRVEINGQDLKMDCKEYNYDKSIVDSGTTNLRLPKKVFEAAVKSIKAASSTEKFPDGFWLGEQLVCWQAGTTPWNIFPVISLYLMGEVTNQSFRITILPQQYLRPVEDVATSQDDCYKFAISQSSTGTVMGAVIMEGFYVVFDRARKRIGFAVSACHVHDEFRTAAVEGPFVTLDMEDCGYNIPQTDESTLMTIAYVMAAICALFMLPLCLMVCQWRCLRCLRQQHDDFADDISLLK

Take `CN1C(=O)C(c2cccc(-c3cncnc3)c2)(c2ccnc(C(F)F)c2)N=C1N` (centres unmarked) [Compound 1]: the concentration for half-maximal inhibition (IC50) was found to be 30 nM. Consider `CN1C(=O)C(c2cccc(-c3cncnc3)c2)(c2ccnc(C(F)(F)F)c2)N=C1N` (centres unmarked) [Compound 2], for which 70 nM corresponded to half-maximal inhibition (IC50).

`Cc1cc(C2(c3ccnc(C(F)(F)F)c3)N=C(N)N(C)C2=O)ccc1OC(F)F` (centres unmarked) [Compound 3] registered an IC50 of 9720 nM. The compound `CN1C(=O)C(c2ccc(C(F)(F)F)nc2)(c2cccc(-c3cncnc3)c2)N=C1N` (centres unmarked) [Compound 4] registered a half-inhibitory concentration (IC50) of 980 nM.

On to `CN1C(=O)C(c2cccc(-c3cncnc3)c2)(c2cccc(C(F)(F)F)n2)N=C1N` (centres unmarked) [Compound 5], for which the IC50 was 7860 nM. In turn, `CN1C(=O)C(c2ccc(C(F)F)nc2)(c2cccc(-c3cncnc3)c2)N=C1N` (centres unmarked) [Compound 6] displayed a 50% inhibitory concentration (IC50) of 940 nM. Compared with the last compound, the IC50 is about 8.4-fold lower. `CN1C(=O)C(c2cccc(-c3cncnc3)c2)(c2cccc(C(F)F)n2)N=C1N` (centres unmarked) [Compound 7] yielded a concentration for half-maximal inhibition (IC50) of 500 nM.

In turn, `CN1C(=O)C(c2cccc(-c3cncnc3)c2)(c2cccc(C(F)F)c2)N=C1N` (centres unmarked) [Compound 8] showed an IC50 of 170 nM.

Usually IC50 stands for the concentration at which inhibition is half-maximal.

The record behind these values is patent US20200165225A1, “BACE1 INHIBITORS FOR TREATMENT OF ALZHEIMER'S DISEASE” (NantBio, Inc., priority 2017, published 2020).
